Laboratory results published in PMC12003248, “ERCC6L2 mitigates replication stress and promotes centromere stability” (Cell Reports, 2023).
Where no end group is shown, it is not given here.

Legend:
His-tagged human PCNA [1] = assay: PCNA pull-down with biotinylated peptides; format: binding; settings: biotinylated peptide on streptavidin beads; purified His-tagged PCNA, 1 h at 4°C; 50 mM Tris-HCl pH 8, 150 mM NaCl, 1 mM DTT, 0.2% Triton X-; anti-PCNA western blot
Excerpt: (§1) Figure 4 ERCC6L2 contains an atypical PCNA-binding motif (A) ERCC6L2 colocalizes with PCNA at CENP-C-negative foci. U2OS cells transfected with YFP-ERCC6L2 were stained for CENP-C and PCNA after pre-extraction of soluble proteins. ERCC6L2-and PCNA-positive, but CENP-C negative foci (red arrows) are marked in zoomed images. (B) ERCC6L2 colocalizes with RPA at CENP-C-negative foci. U2OS cells transfected with YFP-ERCC6L2 were stained for CENP-C and RPA. ERCC6L2- and RPA-positive, but CENP-C-negative foci (red arrows) are marked in zoomed images. (C) Colocalization of the C-terminal ERCC6L2^701−1561 fragment with endogenous PCNA. (D) PCNA pull-down with biotinylated peptides. Biotinylated PIP-box and APIM motif peptides were bound to streptavidin beads and incubated with recombinant PCNA. Interactions were assayed by western blotting with PCNA antibody. Wild-type ZRANB3 PIP-box peptide (ZRANB3 PIP) was used as a positive control. Mutant ZRANB3 PIP-box peptide (Q519A, F525A, and F526A, ZRANB3 PIP^∗) served as a negative control. […] Interactions were assessed by western blotting against PCNA (shown on the right). […]
Custom synthetic biotinylated peptides were synthetised by Genscript and dissolved in 50 mM Tris-HCl pH 8, 150 mM NaCl. […] Finally, the beads were boiled in the SDS-PAGE loading buffer, and analyzed by anti-PCNA Western blotting (1:1000 dilution).

Polα = settings: cited from earlier work
Excerpt: Because centromeres impose specific challenges for DNA replication machinery, we next sought to address the impact of ERCC6L2 deficiency on the progression of DNA replication. […] However, further analyses, based on EdU incorporation over longer time frames, highlighted differences between the two cell lines. Loss of ERCC6L2 reduced efficiency of EdU incorporation in unperturbed c ...

endogenous PCNA [2] = assay: Colocalization of YFP-ERCC6L2 constructs with endogenous PCNA; format: cell-based, human; settings: YFP-tagged, U2OS cells
Excerpt: as §1
U2OS cells (ATCC) were grown in 24 well plates. […] Samples were analyzed by confocal microscopy using Olympus FV1200 or Zeiss 880 Airyscan microscopes, or using EVOS M7000 Imaging System. […]

laser-induced DNA breaks = assay: Recruitment to laser-induced DNA breaks; format: cell-based, human; settings: U2OS cells, 405 nm laser, 10 μM BrdU 16 h
Procedure: U2OS cells were grown in glass-bottomed 24 well plates and transfected with YFP-ERCC6L2 constructs using Lipofectamine 2000 (Life Technologies). Transfected cells were then incubated with 10 μM BrdU for 16 h at 37°C. Laser microirradiation was carried out on an Olympus FV1200 confocal microscope equipped with an environmental chamber. Localised DNA damage was induced in cells showing YFP-tagged protein expression using a 405 nm laser. Recruitment of the proteins was monitored by live cell imaging at 488 nm.

[3] = tested on: single-stranded DNA derived from α-satellite DNA sequence; assay: EMSA, single-stranded DNA; format: binding; settings: His-tagged fragment; 2.5 nM labeled substrate; 30 min, room temperature; 50 mM Tris-HCl pH 7.5; 11, 22, 44, 88, 176 nM (legend Figure 1H)
[4] = tested on: double-stranded DNA derived from α-satellite DNA sequence; assay: EMSA, double-stranded DNA; format: binding; settings: His-tagged fragment; 2.5 nM labeled substrate; 30 min, room temperature; 50 mM Tris-HCl pH 7.5; 11, 22, 44, 88, 176 nM (legend Figure 1H)
His-tagged human PCNA [5] = assay: PCNA pull-down with GST-tagged fragment; format: binding; settings: GST-tagged fragment on GST beads, 1 h at 4°C, 50 mM Tris-HCl pH 8, 150 mM NaCl, 1 mM DTT, 0.2% Triton X-, western blot
endogenous PCNA [6] = assay: Immunoprecipitation of Strep-tagged ERCC6L2 fragment, endogenous PCNA; format: binding, human; settings: 293T cells, Twin-Strep construct, StrepTactin beads, immunoblot

Molecule: ERCC6L2^790−811 peptide: atypical ERCC6L2 peptides (residues 790–811) containing the WT sequence (LLQCGFSKLLETKCKAVEDSDG; cysteine pairing not given here; also: biotinylated, position not given here; UniProt Q5T890 790-811, looked up, fragment)
- interaction with PCNA, pull-down (His-tagged human PCNA [1]): comparable to the one observed with the classical PIP-box peptide from ZRANB3

Molecule: O=C(O)c1ccc2cc(-c3ccc(O)c(C45CC6CC(CC(C6)C4)C5)c3)ccc2c1 [CD437]
- uncoupling of DNA synthesis (Polα): causes uncoupling of leading and lagging strand DNA synthesis

Molecule: full-length ERCC6L2: full-length human ERCC6L2, YFP-tagged
- colocalization with endogenous PCNA (endogenous PCNA [2]): largely absent from PCNA foci in S-phase cells
- mobilization to laser-induced DNA breaks (laser-induced DNA breaks): efficient mobilization

B1: ERCC6L2^1053−1247: purified His-tagged ERCC6L2 fragment containing the VIGS motif (protein, UniProt Q5T890 1053-1247, looked up, fragment)
chain: FSFSKQSHRPRTIRDRTSFSSKLPSHNKKNSTFIPRKPMKCSNEKVVNQEQSYESMDKFLDGVQEVAYIHSNQNVIGSSKAENHMSRWAAHDVFELKQFSQLPANIAVCSSKTYKEKVDADTLPHTKKGQQPSEGSISLPLYISNPVNQKKKKVYHTNQTTFIIGETPKGIRRKQFEEMASYFNSSSVNEFAKHI
modifications: His tag
notes: purified His-tagged ERCC6L2 fragment containing the VIGS motif
- formation of nucleoprotein complexes with single-stranded DNA (EMSA) [3]: formed stable nucleoprotein complexes
- formation of nucleoprotein complexes with double-stranded DNA (EMSA) [4]: formed stable nucleoprotein complexes

B2: GST-tagged ERCC6L2^753−819: GST-tagged ERCC6L2 fragment (residues 753–819) expressed in E. coli (protein)
chain: AAEPLAKEACDLCSDFSDEEPVGATGIKTAKNKAPDSSKASSSPGQLTLLQCGFSKLLETKCKAVED
modifications: left off: GST, end not stated, kept
notes: GST-tagged ERCC6L2 fragment (residues 753–819) expressed in E. coli
- interaction with PCNA, GST pull-down (His-tagged human PCNA [5]): The interaction with PCNA could be demonstrated

B3: ERCC6L2^701−1053: Strep-tagged ERCC6L2 fragment (protein)
chain: QGSCLTKDILEREGQVEAGIMTATTWLKEGPPAHKLEMPRQPDCQECRGTEQAAEPLAKEACDLCSDFSDEEPVGATGIKTAKNKAPDSSKASSSPGQLTLLQCGFSKLLETKCKAVEDSDGNTASDDESSDEQPTCLSTEAKDAGCEKNQDSLGTSKHQKLDNILNPKEKHIFYKSEKILEQNISSKSDEKKIKNTDKHCILQNVTESEDSDVICPTQYTTERFPDNSIRFKPPLEGSEDSETEHTVKTRNNDNSRNTDDKRNGIISKKLSPENTTLKSILKRKGTSDISDESDDIEISSKSRVRKRASSLRFKRIKETKKELHNSPKTMNKTNQVYAANEDHNSQFIDDYS
modifications: left off: Strep tag, end not stated, kept
notes: Strep-tagged ERCC6L2 fragment
- endogenous PCNA in immunocomplexes (endogenous PCNA [6]): detected
